In the experiment the target is Cloned Human Serotonin Receptor, Subtype 7 (h5HT7) (Homo sapiens, UniProt P34969). Kind of experiment: Radioligand binding assay, [125I]LSD, cloned human 5-HT7 receptor expressed in CHO cells (Flashplate). As to conditions: radioligand [125I]LSD 0.82 nM, 240 min at room temperature, triplicate, read-out: 5-HT7 IC-50. How it is done: Biological Assays Radioligand Binding
Radioligand binding assays were performed using the Cloned Human Serotonin Receptor, Subtype 7 (h5HT7), expressed in CHO cells, coated on Flashplate (Basic FlashPlate Cat.: SMP200) from PerkinElmer (Cat.: 6120512). The protocol assay was essentially the recommended protocol in the Technical Data Sheet by PerkinEmer Life and Analytical Sciences. The Mass membrane protein/well was typically 12 μg and the Receptor/well was about 9-10 fmoles. The Flashplate were let equilibrate at room temperature for one hour before the addition of the components of the assay mixture. The binding buffer was: 50 mM Tris-HCl, pH 7.4, containing 10 mM MgCl2, 0.5 mM EDTA and 0.5% BSA. The radioligand was [^125I]LSD at a final concentration of 0.82 nM. Nonspecific binding was determined with 50 μM of Clozapine. The assay volume was 25 μl. TopSeal-A were applied onto Flashplate microplates and they were incubated at room temperature for 240 minutes in darkness. The radioactivity were quantified by liquid scintillation spectrophotometry (Wallac 1450 Microbeta Trilux) with a count delay of 4 minutes prior to counting and a counting time of 30 seconds per well. Competition binding data were analyzed by using the LIGAND program (Munson and Rodbard, LIGAND: A versatile, computerized approach for characterization of ligand-binding systems. Anal. Biochem. 107: 220-239, 1980) and assays were performed in triplicate determinations for each point.

SMILES strings stand for the structures. Where a name gives a salt, the structure may show the parent alone.

The record followed here is US7662862B2, “5-HT7 receptor antagonists” (Laboratorios Del Dr. Esteve, S.A., priority 2004, dated 2010).

Cloned Human Serotonin Receptor, Subtype 7 (h5HT7), sequence (P34969 whole entry): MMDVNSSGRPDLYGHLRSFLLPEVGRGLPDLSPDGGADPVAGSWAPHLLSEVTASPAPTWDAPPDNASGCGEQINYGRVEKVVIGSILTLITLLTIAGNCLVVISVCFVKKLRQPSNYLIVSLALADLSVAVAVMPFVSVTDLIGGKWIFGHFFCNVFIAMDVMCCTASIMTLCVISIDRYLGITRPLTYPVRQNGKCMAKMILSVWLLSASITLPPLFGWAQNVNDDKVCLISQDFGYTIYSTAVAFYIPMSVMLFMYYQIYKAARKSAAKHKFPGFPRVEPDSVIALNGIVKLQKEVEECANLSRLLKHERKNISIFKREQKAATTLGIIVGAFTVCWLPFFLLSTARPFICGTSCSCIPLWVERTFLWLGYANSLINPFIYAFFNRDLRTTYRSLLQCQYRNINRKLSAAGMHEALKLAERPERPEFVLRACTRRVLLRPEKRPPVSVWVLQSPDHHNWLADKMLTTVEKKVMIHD

Turning to `CCN(CCCN1CCc2cc(OC)c(OC)c3c2C1CC3)S(=O)(=O)c1ccccc1Cl` (centres unmarked) [Compound 111, 2-Chloro-N-[3-(7,8-dimethoxy-2,2a,4,5-tetrahydro-1H-3-aza-acenaphthylen-3-yl)-propyl]-N-ethyl-benzenesulfonamide hydrochloride], the IC50 turned out to be 8 nM.

On to `CCN(CCCN1CCc2cc(OC)c(OC)c3c2C1CC3)S(=O)(=O)c1cc(Cl)ccc1Cl` (centres unmarked) [Compound 80, 2,5-Dichloro-N-[3-(7,8-dimethoxy-2,2a,4,5-tetrahydro-1H-3-aza-acenaphthylen-3-yl)-propyl]-N-ethyl-benzene sulfonamide hydrochloride], for which the IC50 was 6.2 nM.

Consider `CCN(CCCN1CCc2cccc3c2C1CC3)S(=O)(=O)c1cccc2ccccc12` (centres unmarked) [Compound 87, Naphthalene-1-sulfonic acid ethyl-[3-(2,2a,4,5-tetrahydro-1H-3-aza-acenaphthylen-3-yl)-propyl]-amide hydrochloride], for which the IC50 turned out to be 20.3 nM.

Regarding `CCN(CCCN1CCc2cccc3c2C1CC3)S(=O)(=O)c1cccc(C)c1` (centres unmarked) [Compound 88, N-Ethyl-3-methyl-N-[3-(2,2a,4,5-tetrahydro-1H-3-aza-acenaphthylen-3-yl)-propyl]-benzenesulfonamide hydrochloride], the IC50 turned out to be 4.5 nM.

Regarding `CCN(CCCN1CCc2cccc3c2C1CC3)S(=O)(=O)c1ccc(C)cc1` (centres unmarked) [Compound 89, N-Ethyl-4-methyl-N-[3-(2,2a,4,5-tetrahydro-1H-3-aza-acenaphthylen-3-yl)-propyl]-benzenesulfonamide hydrochloride], the IC50 was determined as 6.7 nM.
